Measured values: patent publication US20240400579A1, “SPIROCYCLIC MODULATORS OF CHOLESTEROL BIOSYNTHESIS AND THEIR USE FOR PROMOTING REMYELINATION” (GENENTECH, INC., priority 2021, published 2024)
Where two headings read alike, the source gives them in different places.

Experiments:
[1] = target: human emopamil binding protein and human 7-dehydrocholesterol reductase co-expressing cell membrane (Homo sapiens (Human), UniProt Q15125); assay: hEBP-DHCR7 radioligand filtration binding assay with [3H]-Compound 118A*; details: radioligand [3H]-Compound 118A*; HEK293 membrane co-expressing hEBP and DHCR7
human emopamil binding protein and human 7-dehydrocholesterol reductase co-expressing cell membrane, sequence (Q15125 whole entry): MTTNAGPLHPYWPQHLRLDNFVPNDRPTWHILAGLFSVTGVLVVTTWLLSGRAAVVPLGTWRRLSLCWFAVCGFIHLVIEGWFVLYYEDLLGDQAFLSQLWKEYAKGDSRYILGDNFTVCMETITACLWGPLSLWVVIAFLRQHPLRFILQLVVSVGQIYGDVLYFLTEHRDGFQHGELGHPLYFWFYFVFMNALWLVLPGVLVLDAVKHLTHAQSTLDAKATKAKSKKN
Protocol: Membrane Preparation: human emopamil binding protein and human 7-dehydrocholesterol reductase co-expressing cells were generated by transient transfecting host human embryonic kidney (HEK) 293 cells with 2 DNA constructs containing each protein's coding sequence. Cells were suspension cultured at 37° C. with 5% CO2 in […] 293 Expression Medium (Thermofisher). Whole cell membrane was prepared by harvesting the cell pellet, adding cold membrane buffer (50 mM Tris, pH7.5, 1× Roche COMPLETE EDTA-free protease inhibitor cocktail) 10 times volume of the cell pellets weight, lysing cell pellet on ice by using Dounce homogenizer, spinning at 200 g 4° C. for 15 min, collecting supernatant and spinning again at 25000 g 4° C. for 50 min, transferring pellet to Dounce homogenizer, re-suspending pellet by homogenizing in membrane buffer on ice to reach ˜25 mg/mL, then keeping whole cell membrane aliquots at −80° C.
Compounds were prepared in a 96-well U bottom plate using an Echo550 machine and 10 mM compound DMSO stock solution, followed by an 8-dose 5-fold serial dilutions protocol with final testing compound concentration ranging from 0.06 to 5000 nM, with DMSO back fill to 100 nL/well and n=2. […] The UniFilter-96 GF/B plates were pre-treated by adding 50 μl/well of 0.3% (v/v) PEI to UniFilter-96 GF/B plates. The plates were sealed and incubated at 4° C. for 3 hrs. Then, the plates were washed with ice-cold assay buffer 3 times. The radioligand binding assay was prepared by adding assay buffer diluted hEBP-DHCR7 membrane at 66.7 μg/ml x 150 μl/well into the 96-well compound plate to reach 10 μg membrane per well. Then, the assay buffer diluted [3H]-Compound 118A* was added at 25 nM×50 μl/well. Following this, the plate was centrifuged at 1000 rpm for 30 secs. The plate was then sealed and agitated at 600 rpm at 22° C. for 5 min, and then incubated at 22° C. for 3 hrs. The incubation was stopped by transferring the binding solution to the pre-treated UniFilter-96 GF/B plate, vacuum filtrated, and then washed four times with ice-cold assay buffer. Following this, the plates were dried at 37° C. for 45 min. The plates were then sealed at the bottom. 40 μl/well of scintillation cocktail was added to the plates. A MicroBeta2 microplate counter was then used to read the plate and analyze the data. For reference and test compounds, the results are expressed as % Inhibition, using the normalization equation: N=100-100×(U−C2)/(C1−C2), where U is the unknown value, C1 is the average of high controls, and C2 is the average value of low controls. The IC50 was determined by fitting percentage of inhibition as a function of compound concentrations with Hill equation using XLfit. Results are expressed as hEBP-DHCR7 Ki (uM) in Table 4. Ki was calculated as described above.

[2] = system: zymostenol accumulation in EpiSC-derived OPCs (EBP); assay: GC/MS-based sterol profiling, zymostenol accumulation; format: cell-based, mouse; details: 8 doses from 0.15 nM to 333 nM, read-out: mZymo GCMS EC50
Protocol: (§1) To assess effects of treatments on OPCs, all treatments were assayed in two or more independent platings of epiblast stem cell-derived OPCs (EpiSC). EpiSC-derived OPCs were obtained using in vitro differentiation protocols and culture conditions described previously (Najm et al, 2011, Nature Methods). OPCs were expanded and frozen down in aliquots. OPCs were thawed into growth conditions for at least one passage before use in further assays.
Sterols were monitored using a modified Folch wash protocol (Hubler et al, 2018, Nature). EpiSC-derived OPCs were plated at 100,000 cells per well in PO— and laminin-coated 96-well plates in N2B27 media without growth factors. After 24 hours, cells were rinsed with saline and plates were frozen. Cholesterol-d7 standard was then added to each well before drying under nitrogen stream and derivatization with 55 μl of bis(trimethylsilyl) trifluoroacetamide. After derivatization, 2 μl were analyzed by gas chromatography/mass spectrometry using an Agilent 5973 Network Mass Selective Detector equipped with a 6890 gas chromatograph system and a HP-5MS capillary column (30 m x 0.25 mm×[…]). Samples were analyzed in full scan mode using electron impact ionization; ion fragment peaks were integrated to calculate sterol abundance, and quantitation was relative to cholesterol-d7. The following ion fragments were used to quantitate each metabolite: cholesterol-d7 (465), FF-Mas (482), cholesterol (368), zymostenol (458), zymosterol (456), Desmosterol (456, 343), 7-dehydrocholesterol (456, 325), lanosterol (393), lathosterol (458), 14-dehydrozymostenol (456, 351). […] All standards were obtained from Avanti Polar Lipids unless otherwise indicated. Calibration curves were generated by injecting varying concentrations of sterol standards and maintaining a fixed amount of cholesterol-D7. For normalized zymostenol accumulation results, the total amount of zymostenol measured after drug treatment was divided by the total amount of zymostenol accumulated after 24 hr treatment with 100 nM positive control reference.

EpiSC-derived OPCs = assay: In vitro phenotypic screening of OPCs, MBP high-content imaging; format: cell-based, mouse; details: percentage of MBP+ oligodendrocytes, 3 days, 0.5 nM to 1000 nM, read-out: mOPC EC50
Protocol: as §1
EpiSC-derived OPCs were grown and expanded in poly-L-ornithine (PO) and laminin-coated flasks in N2B27 media (DMEM/F12 (Gibco), N2-MAX (R&D Systems), B-27 (ThermoFisher), and GlutaMax (Gibco)) supplemented with FGF2 ([…], R&D systems, 233-FB-025) and PDGF-AA ([…], R&D systems, 233-AA-050) before harvesting for experiments. The cells were seeded onto poly-L-ornithine or poly-D-lysine coated CellCarrier Ultra plates (PerkinElmer) coated with laminin (Sigma, L2020) at a density of 150,000/cm^2 in N2B27 media without growth factors. For dose-response testing, a 1000× compound stock in dimethyl sulphoxide (DMSO) was added to assay plates, resulting in 8-point dose curves with final concentrations between 1000 nM and 0.5 nM. Positive controls and DMSO vehicle controls were included in each assay plate. Cells were incubated under standard conditions (37° C., 5% CO2) for 3 days and fixed with 4% paraformaldehyde (PFA) in phosphate buffered saline (PBS) for 20 min. Fixed plates were washed with PBS, permeabilized with 0.1% Triton X-100, and blocked with 10% donkey serum (v/v) in PBS for 40 min. Then, cells were labelled with MBP antibodies (Abcam, ab7349; 1:200) for 2 h at room temperature, washed with PBS, and stained with Alexa Fluor conjugated secondary antibodies (1:500) for 45 min. Nuclei were visualized by DAPI staining (Sigma; 1 μg/ml), followed by further PBS washes.
Cells and cell culture plates were imaged on the Operetta High Content Imaging and Analysis system (PerkinElmer). Analysis (PerkinElmer Harmony and Columbus software) began by identifying intact nuclei stained by DAPI. The peri-nuclear region of each cell was then cross-referenced with the mature myelin protein (MBP) stain to identify oligodendrocyte nuclei, and from this the percentage of oligodendrocytes was calculated. EC50 values were calculated using The Levenberg-Marquardt algorithm to fit a Hill equation to dose-response data (0.5 nM to 1000 nM).

SMILES | Ki [1] [nM] | EC50 ([2]; 24 hours) [nM] | EC50 (EpiSC-derived OPCs) [nM] | EC50 ([2]; Mus musculus, 24 h) [nM] | EC50 (EpiSC-derived OPCs; Mus musculus, 72 h) [nM]
C[C@H](Cc1ccc([C@H]2CC[C@](O)(C(F)(F)F)CC2)c(Cl)c1)CN1CCC2(C1)CS(=O)(=O)C2 (stereo in doubt) [116B*, 6-((S)-3-(3-Chloro-4-((1s,4S)-4-hydroxy-4-(trifluoromethyl)cyclohexyl)phenyl)-2-methylpropyl)-2-thia-6-azaspiro[3.4]octane 2,2-dioxide, and 6-((R)-3-(3-chloro-4-((1r,4R)-4-hydroxy-4-(trifluoromethyl)cyclohexyl)phenyl)-2-methylpropyl)-2-thia-6-azaspiro[3.4]octane 2,2-dioxide] | 9.31 | 0.81 | 2 |  | 
C[C@@H](Cc1ccc(C2CCC2)cc1)CN1CCC2(C1)CS(=O)(=O)C2 (single isomer, unassigned) [109C*] | 5.14 |  |  | 2.1 | 3
O=S1(=O)CC2(CCN(CCOc3ccc([C@H]4CC[C@H](C(F)(F)F)CC4)nc3)CC2)C1 [247A*, 7-(2-((6-((trans)-4-(Trifluoromethyl)cyclohexyl)pyridin-3-yl)oxy)ethyl)-2-thia-7-azaspiro[3.5]nonane 2,2-dioxide] | 5.72 |  |  | 3.16 | 22.8
C[C@H](Cc1ccc(C(F)(F)F)cn1)CN1CCC2(C1)CS(=O)(=O)C2 (single isomer, unassigned) [121B*] | 140 |  |  | 150 | 260
O=S1(=O)CC2(CCN(CC3(Oc4ccc(C(F)(F)F)cc4)CCC3)CC2)C1 [Compound 222, 7-((1-(4-(Trifluoromethyl)phenoxy)cyclobutyl)methyl)-2-thia-7-azaspiro[3.5]nonane 2,2-dioxide] | 3.7 |  |  | 3.7 | 16
O=S1(=O)CC2(CCN(CCOc3cncc(F)c3)CC2)C1 [Example 210, 7-(2-((5-Fluoropyridin-3-yl)oxy)ethyl)-2-thia-7-azaspiro[3.5]nonane 2,2-dioxide] | 504 |  |  | 52 | 282
CC(C)(Cc1cncc(C(F)(F)F)c1)CN1CCC2(C1)CS(=O)(=O)C2 [Example 149, 6-(2,2-Dimethyl-3-(5-(trifluoromethyl)pyridin-3-yl)propyl)-2-thia-6-azaspiro[3.4]octane-2,2-dioxide] | 24.6 |  |  | 1.6 | 6.3
O=S1(=O)CC2(CCN(CCOc3ccc(Cl)c(F)c3)CC2)C1 [Example 206, 7-(2-(4-Chloro-3-fluorophenoxy)ethyl)-2-thia-7-azaspiro[3.5]nonane 2,2-dioxide] | 13.2 |  |  | 1.5 | 3.2
O=S1(=O)CC2(CCN(CCOc3cnc([C@H]4CCC[C@@H](C(F)(F)F)C4)nc3)CC2)C1 (relative stereo) [Compound 248B, 7-(2-((2-((cis)-3-(trifluoromethyl)cyclohexyl)pyrimidin-5-yl)oxy)ethyl)-2-thia-7-azaspiro[3.5]nonane 2,2-dioxide] | 31.6 |  |  | 25.6 | 74.1
O=S1(=O)CC2(CCN(CCOc3cnc([C@H]4CCC[C@H](C(F)(F)F)C4)nc3)CC2)C1 (relative stereo) [Compound 248A, 7-(2-((2-((trans)-3-(Trifluoromethyl)cyclohexyl)pyrimidin-5-yl)oxy)ethyl)-2-thia-7-azaspiro[3.5]nonane 2,2-dioxide] | 14.9 |  |  | 24.4 | 94.8
O=S1(=O)CC2(CCN(CCOc3ccc(OC(F)(F)F)cc3)CC2)C1 [Compound 218, 7-(2-(4-(Trifluoromethoxy)phenoxy)ethyl)-2-thia-7-azaspiro[3.5]nonane 2,2-dioxide] | 6.54 |  |  | 0.93 | 2.5
C[C@H](CN1CCC2(C1)CS(=O)(=O)C2)Oc1ccc(C(F)(F)F)cc1 (single isomer, unassigned) [115A*] | 18.9 |  |  | 8.6 | 42
C[C@@H](CN1CCC2(C1)CS(=O)(=O)C2)Oc1ccc(C(F)(F)F)cc1 (single isomer, unassigned) [115B*] | 13.5 |  |  | 15 | 29
C[C@@H](Cc1ccc(C(F)(F)F)nc1)CN1CC2(CCS(=O)(=O)CC2)C1 (single isomer, unassigned) [234B*] | 193 |  |  | 35 | 210
CC(C)n1nc(C(F)(F)F)cc1C[C@@H](C)CN1CCC2(C1)CS(=O)(=O)C2 (single isomer, unassigned) [235A*] | 19.7 |  |  | 6.1 | 19.9
C[C@@H](Cc1ccc([C@H]2CC[C@](C)(O)CC2)c(Cl)c1)CN1CCC2(C1)CS(=O)(=O)C2 (mixture of isomers) [Compound 123B, 6-((S)-3-(3-Chloro-4-((1r,4S)-4-hydroxy-4-methylcyclohexyl)phenyl)-2-methylpropyl)-2-thia-6-azaspiro[3.4]octane 2,2-dioxide, and 6-((R)-3-(3-chloro-4-((1r,4R)-4-hydroxy-4-methylcyclohexyl)phenyl)-2-methylpropyl)-2-thia-6-azaspiro[3.4]octane 2,2-dioxide] | 11 | 2.4 | 35 |  | 
